# According to patent US5830910A (priority 1995, dated 1998):
# Columns and labels:
# [1] = test system: cultured hippocampal neurons; test: calcium ionophore A23187 neurotoxicity; type: cell-based, rat
# Excerpt: (§1) Dissociated embryonic rat hippocampal cell cultures were established and maintained. All procedures conformed with the NIH Guide for the Care and Use of Laboratory Animals and were approved by the University of Kentucky Animal Care and Use Committee. Cultures were maintained on a polyethyleneimine-coated substrate in plastic 35-mm dishes or 96 wall plates (for cell survival studies) or glass-bottom 35-mm dishes (for [Ca^2+ ]i imaging studies). The cell density was ^~ 70-100 cells/mm^2. Cells were maintained in Eagle's minimum essential medium supplemented 10% with fetal bovine serum and containing 20 mM sodium pyruvate. […] Aβ25-35 (Bachem, lot ZJ744) and Aβ1-40 (Bachem, lot ZK600) were stored in the lyophilized form, and stocks were prepared immediately before use by dissolving the peptide at a concentration of 1 mM in sterile distilled water. […] Glutamate and colchicine (Sigma) were prepared as 200-500x stocks in saline. Cytochalasins D and E (Sigma) and calcium ionophore 4-bromo-A23187 (Calbiochem) were prepared as 500x stocks in dimethyl sulfoxide. Vitamin E (α-tocopherol; Sigma) was prepared as a 500x stock in ethanol. Nordihydroguaiaretic acid and FeSo4 were prepared as 500x stocks in sterile water.
# Neuronal survival was quantified by counting viable neurons in the same microscope fields (10x objective) immediately before experimental treatment and at time points after treatment. In addition, cells were grown in 96-well plates and Alamar blue fluorescence (Alamar Laboratories)was quantified by using a fluorescence plate reader. Alamar Blue is a non-fluorescent substrate that, after reduction by cell metabolites, becomes fluorescent. […] Viability of the remaining neurons was assessed by morphological criteria. […] Survival values were expressed as percentages of the initial number of neurons present before experimental treatment. […]
# FIG. 7. Cultures were pretreated for 1 h with 0.2% dimethylsulfoxide (control) or 100 nM cytochalasin D. Calcium ionophore A23187 was then added at the indicated concentrations and neuronal survival was assessed 8 h later. […]
# [2] = test system: cultured hippocampal neurons; test: hydrogen peroxide neurotoxicity; type: cell-based, rat
# Excerpt: as §1
# Neuronal survival was quantified by counting viable neurons in the same microscope fields (10x objective) immediately before experimental treatment and at time points after treatment. In addition, cells were grown in 96-well plates and Alamar blue fluorescence (Alamar Laboratories)was quantified by using a fluorescence plate reader. Alamar Blue is a non-fluorescent substrate that, after reduction by cell metabolites, becomes fluorescent. […] Viability of the remaining neurons was assessed by morphological criteria. Neutrons with intact neurites of uniform diameter and a soma with a smooth, round appearance were considered viable, whereas neurons with fragmented neurites and a vacuolated or swollen soma were considered nonviable. Survival values were expressed as percentages of the initial number of neurons present before experimental treatment. Statistical comparisons were made using ANOVA and Scheffe post-hoc tests for pairwise comparisons.
# FIG. 15. […] Cultures were pretreated for 1 h with vehicle (Control), 100 nM cytochalasin D (CyD), or 50 μg/ml vitamin E (vE) and then exposed for 20 h to the indicated concentrations of hydrogen peroxide. Data are mean and SEM values of determinations made in four separate cultures.
# [3] = test system: cultured hippocampal neurons; test: iron (FeSO4) neurotoxicity; type: cell-based, rat; conditions: 50 μg/ml vitamin E or 2 μM NDGA, 1 h preincubation
# Excerpt: as §1
# (§2) Neuronal survival was quantified by counting viable neurons in the same microscope fields (10x objective) immediately before experimental treatment and at time points after treatment. In addition, cells were grown in 96-well plates and Alamar blue fluorescence (Alamar Laboratories)was quantified by using a fluorescence plate reader. Alamar Blue is a non-fluorescent substrate that, after reduction by cell metabolites, becomes fluorescent. Usually neurons that died in the time intervals (20-48 h) between examination points were absent. Viability of the remaining neurons was assessed by morphological criteria. Neutrons with intact neurites of uniform diameter and a soma with a smooth, round appearance were considered viable, whereas neurons with fragmented neurites and a vacuolated or swollen soma were considered nonviable. Survival values were expressed as percentages of the initial number of neurons present before experimental treatment. Statistical comparisons were made using ANOVA and Scheffe post-hoc tests for pairwise comparisons.
# FIG. 8. Cultures were preincubated 1 h in the presence of 0.5% dimethylsulfoxide (control), 100 nM cytochalasin D, 50 μg/ml vitamin E (VitE), or 2 μM nordihydroguairetic acid (NDGA). Cultures were then exposed for 6 h to the indicated concentrations of FeSO4 and neuronal survival was quantified. Values represent the means and SEM of determinations made in four separate cultures. *P<0.001 compared to value for cultures exposed to 100 μM FeSO4 alone.
# [4] = test system: cultured hippocampal neurons; type: cell-based, rat; conditions: 48-h period, added in soluble form
# Excerpt: as §1, §2
# FIG. 12. (A) Cultures were pretreated for 1 h with vehicle 0.2% dimethyl sulfoxide (Control) or 100 nM cytochalasin D (CyD) and were exposed to the indicated concentrations of Aβ25-35 for 48 h. Data are mean and SEM values of determinations made in four separate cultures.
# (B) Cultures were pretreated for 1 h with the indicated concentrations of cytochalasin D and then exposed to 50 μM Aβ25-35; parallel cultures were exposed to cytochalasin D alone (Control) . Data are mean and SEM values of determinations made in four separate cultures.
# FIG. 14. Cultures were exposed to 100 nM colchicine; 50 μM Aβ; 100 nM colchicine plus 50 μM Aβ; 100 nM cytochalasin E (CyE) plus Aβ (colchicine and cytochalasin E were added 1 h before Aβ); neuronal survival was assessed 48 h later. Data are mean and SEM values of determinations made in four separate cultures. *p<0.01, compared with values for control or colchicine alone. **p<0.01, compared with value for cultures exposed to Aβ alone.
# [5] = aggregation of peptides in culture medium; type: physicochemical
# Excerpt: as §1
compound,measurement,setting,value
CNc1ccc2oc(C[C@H]3O[C@@]4(CC[C@H]3C)O[C@H]([C@H](C)C(=O)c3ccc[nH]3)[C@H](C)C[C@H]4C)nc2c1C(=O)O [A23187],neurons killed,[1]; 1 μM,essentially all neurons being killed
same,neuronal survival,[1]; 100-1000 nM,concentration-dependent reduction in neuronal survival
"Cc1c(C)c2c(c(C)c1O)CCC(C)(CCCC(C)CCCC(C)CCCC(C)C)O2 (stereo not drawn) [Vitamin E, α-tocopherol, reference compound]",effect on neurotoxicity of hydrogen peroxide,"[2]; 50 μg/ml, 1 h pretreatment, 20 h",largely prevented
same,effect on neurotoxicity of iron,[3],completely blocked
"OO [Hydrogen peroxide, hydrogen peroxide, reference compound]",neuronal survival,[2]; 20-h exposure,concentration-dependent reduction in neuronal survival
"Aβ1-40: Aβ1-40 (Bachem, lot ZK600), amyloid β-peptide [reference compound]","neurotoxicity, preliminary characterization",[4],progressively killed neurons
same,aggregation in culture medium,[5],aggregated rapidly
